How the values were obtained:
[1] = tested on: RAW 264.7 cells; assay: Nitroso species accumulation in RAW 264.7 cells (triiodide chemiluminescence); type: cell-based, rat
Experimental: Referring now to FIG. 3, briefly, RAW 264.7 cells were incubated with 500 μM GSNO alone (γ) or in presence of 33 μM Compound 6 (◯) or 7 (Δ) or 8 (▪). At indicated times or at 4 hr (in case of B), the cells were lysed and the lysate was analyzed for protein and nitroso species concentration by Bradford and chemiluminescence assay, respectively. For details, see Materials and methods. Data represents mean±SE (n=3−12).
RAW 264.7 cells were cultured in DMEM medium supplemented with 10% FBS, 200 U/ml of penicillin and 200 μg/mL of streptomycin. The cells were incubated at 37° C. in an atmosphere containing 5% CO2 and 95% air. For the experiments, 1-2×10^6 cells were plated in six-well plates a day before the experiment. On the day of the assay the medium was replaced with 3 ml of fresh medium and the cells were treated with compounds for a predetermined length of time. Following the incubation period, the cells were washed three times with PBS and scraped off the plate in 250 μl of lysis buffer (50 mM potassium phosphate pH 7.0 containing 50 mM NEM and 1 mM EDTA). Cells were lysed by sonication using a micro tip probe (three pulses of 30% duty cycle; 2 output control on a Fisher Sonicator). Cell debris was pelleted by centrifugation (10 min at 16,000 g) and the cell lysate was analyzed for protein concentration using the Bio-Rad dye-binding protein assay. The concentration of nitroso compounds in the cell lysate was determined using the triiodide based chemiluminescence method using a Sievers 280 nitric oxide analyzer. Briefly, cell lysates were treated with 15% v/v of a sulfanilamide solution (5% w/v in 0.2 M HCl) and kept at room temperature for 5 min to remove nitrite. The triodide mixture was prepared fresh every day as described earlier and kept at 60° C. in the reaction vessel. The concentration of nitroso species was derived from a standard curve generated using GSNO. For determining the amount of the small size nitroso compounds in the cell lysate, a 5 kDa-cutoff Amicon ultra filtration unit was used according to the supplier's instructions. The amount of s-nitrosothiols in the cell lysate was determined by treating initially passing the cell lysate through a microspin column and treating the eluate with 5 mM HgCl2 before determining the nitroso compound concentration using chemiluminescence. For some experiments the cells were pretreated with the compounds for 16 hours prior to the day of experiment.

[2] = tested on: RAW 264.7 cells; assay: s-Nitrosothiol accumulation in RAW 264.7 cells, biotin switch assay; type: cell-based, rat
Experimental: Referring now to FIG. 4, RAW 264.7 cells were cultured in DMEM containing 10% heat-inactivated serum. Cells were treated with 33 μM of Compound 8 for 0, 2, 4, 8, or 24 h alone or in combination with 1 mM NAME for 4 h (lane 4+N). At indicated times, the cells were quenched and the lysate was analyzed for s-nitrosothiol content by the biotin switch assay.
RAW 264.7 cells were cultured in 10% heat-inactivated serum containing DMEM. Cells were treated with 33 micromolar compound 8 for varied lengths of time alone or in combination with 1 mM NAME for 4 h (4+N). […] Briefly, free sulfydryls in ˜200 μg of cell lysate were blocked with 20 mM MMTS in 1 ml of HEN buffer (250 mM HEPES pH 7.7 containing 1 mM EDTA and 0.1 mM Neocupronine) containing 2% SDS at 50° C. for 20 min. Free MMTS was removed by gel-filtration spin columns and the blocked proteins were labeled with 1 mM Biotin-HPDP (Pierce) in presence or absence of 30 mM ascorbate and 2 μM CuCl for 2.5 hours.

[3] = tested on: RAW 264.7 cells; assay: cGMP accumulation in RAW 264.7 cells; type: cell-based, rat; settings: 50 μM GSNO, 10 minutes
Experimental: cGMP plays key roles in vascular biology. To test whether inhibition of GSNOR increases cGMP production, RAW 264.7 cells were incubated with 50 μM GSNO±, both with and without compound 8, one of the subject GSNOR inhibitors of this invention. Next the amount of cGMP accumulation after 10 minutes was measured. Referring now to FIG. 6, GSNO activates soluble Guanylate Cyclase as previously described (Mayer et al J Biol Chem, Vol. 273, Issue 6, 3264-3270, Feb. 6, 1998). Compound 8 (GSNORi in the figure) potentiates the effect of GSNO by 2.5 fold.
Referring now to FIG. 6, RAW 264.7 cells were incubated with 50 μM GSNO±compound 8 the subject GSNOR inhibitor of this invention and then measured the amount of cGMP accumulation after 10 minutes. As shown in the figure GSNO activates soluble Guanylate Cyclase as previously described (Mayer et al J Biol Chem, Vol. 273, Issue 6, 3264-3270, Feb. 6, 1998). One mechanism by which compound 8 exerts its biochemical effects is due to its inhibition of GSNOR, which then potentiates the effects of GSNO on cGMP production resulting in higher cGMP levels.

[4] = biological target: GSNOR (Homo sapiens, UniProt P11766); assay: GSNOR inhibition at pH 10 (octanol, NAD+); type: biochemical; set-up: made in house; host or cells: E. coli; settings: pH 10 versus pH 7.5
GSNOR, sequence (P11766 2-374 limits assumed): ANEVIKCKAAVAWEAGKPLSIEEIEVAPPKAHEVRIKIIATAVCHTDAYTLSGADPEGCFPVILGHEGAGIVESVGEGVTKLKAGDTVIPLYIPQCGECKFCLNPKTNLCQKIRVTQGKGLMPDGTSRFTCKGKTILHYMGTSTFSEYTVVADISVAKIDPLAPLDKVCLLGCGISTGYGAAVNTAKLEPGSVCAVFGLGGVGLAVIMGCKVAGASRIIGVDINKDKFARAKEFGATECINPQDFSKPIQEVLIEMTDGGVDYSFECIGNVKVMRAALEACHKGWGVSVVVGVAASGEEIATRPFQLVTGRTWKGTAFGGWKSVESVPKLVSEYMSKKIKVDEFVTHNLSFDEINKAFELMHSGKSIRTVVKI
Experimental: Referring now to Table 1, inhibition was studied at pH 10. These assays were performed in 0.1 M sodium glycine containing 1 mM octanol, 1 mM NAD^+, 0.1 mM EDTA and 50 μM inhibitor. Inhibition studies at pH 7.5 were performed in 50 mM potassium phosphate pH 7.5 that included 15 μM NADH, 10 μM GSNO, 0.1 mM EDTA and 50 μM inhibitor. The data file to a model consisted with partial inhibition and a hill coefficient of 2.4 in the inhibition curve. The screening for GSNOR inhibitors was performed using a library of 60,000 compounds from ChemDiv Inc in the Chemical Genomics Core facility at Indiana University. Screening was conducted in 384 well plates and involved incubating GSNOR with 12.5 μM compound, 1 mM each of NAD^+ and octanol in 0.1 M sodium glycine pH 10. Enzyme activity was determined by measuring the rate of production of NADH spectrophotometrically at 340 nm. Inhibition of GSNOR was calculated from the ratio of enzyme activity in the presence of compounds to that in no compound controls performed on the same assay plate. Following their identification from the high-throughput screening, the GSNOR inhibitory properties of the initial hits were confirmed at the pH 10 using 12-hydroxydodecanoic acid as the substrate and at pH 7.5 using GSNO as the substrate (see the brief description of Table 1 for details on how the assay was carried out.)

N#Cc1ccccc1CSc1nc2ccsc2c(=O)n1Cc1ccc(C(=O)O)cc1 [Compound 8]
nitrosylation, fold higher than Compound 7 ([1]; 33 μM initial concentration, 500 μM GSNO, 4 hr): 3 fold | decrease in nitrosylated species relative to amounts at 4 hours ([1]; exposure up to 24 hours, data not shown): 80% | time of peak effect on nitrosylation of cellular proteins ([2]; 33 μM): around 8 hours | time to decrease to normal nitrosylation levels ([2]; 33 μM): ≤ 24 h | accumulation of SNOs with simultaneous L-NAME ([2]; 33 μM compound 8 + 1 mM NAME, 4 h): less | nitrosylation of cellular proteins ([2]; 33 μM, 0-24 h): increased the nitrosylation of cellular proteins with time | potentiation of the effect of GSNO on cGMP [3]: 2.5 fold | GSNOR inhibition at pH 10 compared with pH 7.5 [4]: higher GSNOR inhibition at pH 10 than at pH 7.5
